The IC50 is the concentration that inhibits the measured activity by half.

Consider 20 compounds from patent publication US9394297B2, “Amides as pim inhibitors” (AMGEN INC., priority 2012, dated 2016).

Where a name gives a salt, the structure may show the parent alone.

Experiment [1] concerns the target Pim-1 (Homo sapiens (Human), UniProt P11309). Briefly: Pim-Mn enzyme assay (HTRF, 384-well), Pim-1. The experiment is classed as biochemical. Conditions: Pim-1 enzyme 5 pM, ATP 1.5 μM, BAD (S112) 0.5 μM, HTRF, 22-point curve; read-out: Pim-1-Mn IC50 IP. In general terms: Time-resolved FRET reads energy transfer from a long-lived donor to a nearby acceptor.
Experiment [2] concerns the target Pim-2 (Homo sapiens (Human), UniProt Q9P1W9). Briefly: Pim-Mn enzyme assay (HTRF, 384-well), Pim-2. The experiment is classed as biochemical. Conditions: Pim-2 enzyme 0.5 pM, ATP 1.5 μM, BAD (S112) 0.5 μM, HTRF, 22-point curve; read-out: Pim-2-Mn IC50 IP.

Sequence of Pim-2 (Q9P1W9 whole entry): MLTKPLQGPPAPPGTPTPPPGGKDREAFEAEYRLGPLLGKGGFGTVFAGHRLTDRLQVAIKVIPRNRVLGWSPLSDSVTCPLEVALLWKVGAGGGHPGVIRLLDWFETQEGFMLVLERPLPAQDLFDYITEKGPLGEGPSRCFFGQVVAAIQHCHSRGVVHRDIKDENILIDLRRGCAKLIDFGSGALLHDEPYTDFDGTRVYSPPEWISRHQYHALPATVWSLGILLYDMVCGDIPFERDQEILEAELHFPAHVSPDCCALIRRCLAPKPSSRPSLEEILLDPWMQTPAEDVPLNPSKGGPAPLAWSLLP
Sequence of Pim-1 (P11309 whole entry): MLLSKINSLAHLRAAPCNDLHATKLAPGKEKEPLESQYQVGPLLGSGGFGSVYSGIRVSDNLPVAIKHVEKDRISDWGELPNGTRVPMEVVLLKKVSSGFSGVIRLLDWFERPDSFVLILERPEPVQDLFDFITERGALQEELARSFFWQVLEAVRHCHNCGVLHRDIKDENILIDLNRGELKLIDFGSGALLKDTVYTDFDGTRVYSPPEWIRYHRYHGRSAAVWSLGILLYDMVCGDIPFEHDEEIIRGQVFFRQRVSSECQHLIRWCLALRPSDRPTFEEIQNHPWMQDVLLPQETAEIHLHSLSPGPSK

As for `Cc1nc2cccc(-c3cc4c([nH]3)CCNC4=O)c2nc1NC(C)(C)C(F)(F)F` [Example 254, 2-(2-methyl-3-((1,1,1-trifluoro-2-methylpropan-2-yl)amino)quinoxalin-5-yl)-6,7-dihydro-1H-pyrrolo[3,2-c]pyridin-4(5H)-one], the IC50 was found to be 2.67 nM in experiment [1] and 2.24 nM in experiment [2]. The matching figures for `CC(C)(C)Nc1nc2c(-c3cc4c([nH]3)CCNC4=O)cccc2nc1C(F)(F)F` [Example 224, 2-(3-(tert-butylamino)-2-(trifluoromethyl)quinoxalin-5-yl)-6,7-dihydro-1H-pyrrolo[3,2-c]pyridin-4(5H)-one]: 4.2 nM and 2.8 nM. With `C[C@H]1NC(=O)c2cc(-c3cccc4c(=O)n(C)c(N[C@H]5CCC[C@@H](N)C5)nc34)[nH]c21` (racemic) [Example 506, (rac)-2-(((cis)-3-aminocyclohexyl)amino)-3-methyl-8-((6R)-6-methyl-4-oxo-1,4,5,6-tetrahydropyrrolo[3,4-b]pyrrol-2-yl)-4(3H)-quinazolinone], the IC50 in experiment [2] is 0.1 nM. Consider `Cc1nc2cccc(-c3cc4n(c3)C(CCO)CNC4=O)c2nc1NC(C)(C)C` (racemic) [Example 235, (±)-7-(3-(tert-butylamino)-2-methyl-5-quinoxalinyl)-4-(2-hydroxyethyl)-3,4-dihydropyrrolo[1,2-a]pyrazin-1(2H)-one], for which the IC50 in experiment [1] turned out to be 9.5 nM; in experiment [2], 14.5 nM.

On to `CCCCNc1nc2c(-c3cc4c([nH]3)CCNC4=O)cccc2nc1C` [Example 159, 2-(3-(butylamino)-2-methylquinoxalin-5-yl)-6,7-dihydro-1H-pyrrolo[3,2-c]pyridin-4(5H)-one], for which the 50% inhibitory concentration (IC50) in experiment [1] is 3.1 nM; in experiment [2] it was 1.7 nM. The matching figures for `Cc1nc2cccc(-c3cc4c([nH]3)CCNC4=O)c2nc1N[C@H]1CCCN(C(=O)OC(C)(C)C)C1` [Example 51, tert-butyl (3S)-3-((3-methyl-8-(4-oxo-4,5,6,7-tetrahydro-1H-pyrrolo[3,2-c]pyridin-2-yl)-2-quinoxalinyl)amino)-1-piperidinecarboxylate]: 191 nM and 220 nM.

In the case of `Cc1nc2cccc(-c3cc4c([nH]3)[C@@H](C)NC4=O)c2nc1N[C@H]1CCC[C@@H](N)C1` [Example 483, (6R)-2-(3-(((1S,3R)-3-aminocyclohexyl)amino)-2-methyl-5-quinoxalinyl)-6-methyl-5,6-dihydropyrrolo[3,4-b]pyrrol-4(1H)-one], the figures for the IC50 in experiment [1] and in experiment [2] were 0.0598 nM and 0.0358 nM, respectively. Consider `C[C@H]1NC(=O)c2cc(-c3cccc4c(=O)n(C5CCC5)c(NC(C)(C)C)nc34)[nH]c21` [Example 507, (R)-2-(tert-Butylamino)-3-cyclobutyl-8-(6-methyl-4-oxo-1,4,5,6-tetrahydropyrrolo[3,4-b]pyrrol-2-yl)quinazolin-4(3H)-one], for which the IC50 in experiment [1] was determined as 0.3 nM; in experiment [2] it was 0.6 nM. Consider `Cc1nc2cccc(-c3cc4c([nH]3)CCNC4=O)c2nc1NC1CN(C(=O)OC(C)(C)C)C1` [Example 149, tert-butyl 3-((3-methyl-8-(4-oxo-4,5,6,7-tetrahydro-1H-pyrrolo[3,2-c]pyridin-2-yl)quinoxalin-2-yl)amino)azetidine-1-carboxylate], for which the IC50 in experiment [1] is 20 nM; in experiment [2], 33 nM. The like results for `CC#CCC1CNC(=O)c2cc(-c3cccc4nc(C)c(NC(C)(C)C)nc34)[nH]c21` (racemic) [Example 278, rac-2-(3-(tert-butylamino)-2-methyl-5-quinoxalinyl)-7-(2-butyn-1-yl)-1,5,6,7-tetrahydro-4H-pyrrolo[3,2-c]pyridin-4-one] were, in that order, 3.1 nM and 10.5 nM.

For `CC(=O)N1CCC[C@@H](Nc2nc3c(-c4cc5c([nH]4)CCNC5=O)cccc3nc2C)C1` [Example 241, 2-(3-(((3R)-1-acetyl-3-piperidinyl)amino)-2-methyl-5-quinoxalinyl)-1,5,6,7-tetrahydro-4H-pyrrolo[3,2-c]pyridin-4-one], the results for the IC50 in experiment [1] and in experiment [2] were 43.7 nM and 68.4 nM, respectively. The matching figures for `Cc1nc2cccc(-c3cc4c([nH]3)CCNC4=O)c2nc1NC1CCN(C(=O)OC(C)(C)C)CC1` [Example 47, tert-butyl 4-((3-methyl-8-(4-oxo-4,5,6,7-tetrahydro-1H-pyrrolo[3,2-c]pyridin-2-yl)-2-quinoxalinyl)amino)-1-piperidinecarboxylate]: 13.2 nM and 34.9 nM. The like results for `C[C@H]1NC(=O)c2cc(-c3cccc4c(=O)n(C)c(N[C@@H]5CCC[C@H](NC(=O)OC(C)(C)C)C5)nc34)[nH]c21` (racemic) [Example 509, (rac)-tert-butyl ((cis)-3-((3-methyl-8-((R)-6-methyl-4-oxo-1,4,5,6-tetrahydropyrrolo[3,4-b]pyrrol-2-yl)-4-oxo-3,4-dihydroquinazolin-2-yl)amino)cyclohexyl)carbamate] were, in that order, 14 nM and 15 nM. The matching figures for `CCn1c(NC(C)(C)C)nc2c(-c3cc4c([nH]3)[C@@H](C)NC4=O)c(F)ccc2c1=O` [Example 512, (R)-2-(tert-Butylamino)-3-ethyl-7-fluoro-8-(6-methyl-4-oxo-1,4,5,6-tetrahydropyrrolo[3,4-b]pyrrol-2-yl)quinazolin-4(3H)-one]: 0.029 nM and 0.0741 nM.

As to `CC(=O)N1CCC(Nc2nc3c(-c4cc5c([nH]4)CCNC5=O)cccc3nc2C)CC1` [Example 50, 2-(3-((1-acetyl-4-piperidinyl)amino)-2-methyl-5-quinoxalinyl)-1,5,6,7-tetrahydro-4H-pyrrolo[3,2-c]pyridin-4-one], the IC50 in experiment [1] is 13.7 nM; in experiment [2] it was 24.4 nM. The matching figures for `Cc1nc2cccc(-c3cc4c([nH]3)CCNC4=O)c2nc1N[C@H]1C[C@H](NC(=O)OC(C)(C)C)C1` [Example 436, tert-butyl ((1r,3s)-3-((3-methyl-8-(4-oxo-4,5,6,7-tetrahydro-1H-pyrrolo[3,2-c]pyridin-2-yl)quinoxalin-2-yl)amino)cyclobutyl)carbamate]: 4.1 nM and 8.2 nM. `Cc1nc2cccc(-c3cc4c([nH]3)CCNC4=O)c2nc1N[C@H]1C[C@H](N)C1` [Example 437, 2-(3-(((1r,3r)-3-aminocyclobutyl)amino)-2-methylquinoxalin-5-yl)-6,7-dihydro-1H-pyrrolo[3,2-c]pyridin-4(5H)-one hydrochloride]: the IC50 in experiment [1] stood at 0.5 nM. `Cc1nc2cccc(-c3cc4c([nH]3)[C@@H](C)NC4=O)c2nc1N[C@H]1CCC[C@@H](NCC(F)(F)F)C1` [Example 487, (6R)-6-methyl-2-(2-methyl-3-(((1S,3R)-3-((2,2,2-trifluoroethyl)amino)cyclohexyl)amino)-5-quinoxalinyl)-5,6-dihydropyrrolo[3,4-b]pyrrol-4(1H)-one]: the IC50 in experiment [1] was found to be 0.501 nM. Regarding `C[C@H]1NC(=O)c2cc(-c3c(F)ccc4c(=O)n(C5CC5)c(NC5(C)CCC5)nc34)[nH]c21` [Example 498, 3-Cyclopropyl-7-fluoro-2-((1-methylcyclobutyl)amino)-8-((6R)-6-methyl-4-oxo-1,4,5,6-tetrahydropyrrolo[3,4-b]pyrrol-2-yl)-4(3H)-quinazolinone], the IC50 in experiment [1] is 0.07 nM.

For the compound “(R)-2-(3-(cyclopropylamino)-6-fluoro-2-methylquinoxalin-5-yl)-6-methyl-5,6-dihydropyrrolo[3,4-b]pyrrol-4(1H)-one [Example 284]”, the IC50 in experiment [1] worked out at 1.2 nM.
